# US10238641B2, “Materials and methods for diagnosis, prevention and/or treatment of stress disorders and conditions associated with A-beta peptide aggregation” (The United States of America as represented by the …, priority 2008, dated 2019)
# Experiments:
# nAChRs = format: cell-based, rat
# cortical cells = test: Survival of cortical cells exposed to cotinine alone, MTT assay; format: cell-based, rat; settings: various concentrations of cotinine, 48 hours
# Procedure: Cortical cells were subjected to various concentrations of cotinine and cell viability was assessed after 48 hours by MTT assay (see FIG. 1). Statistical significance of the differences in MTT values was assessed by one-way ANOVA with Tukey post-test. ns, not significant difference with (P>0.05).
# Aβ1-42 peptide = molecular target: T1, Aβ1-42 peptide (Homo sapiens, UniProt P05067); test: AFM analysis of Aβ1-42 fibrillation; format: biochemical
# T1 construct: Aβ1-42 peptide was obtained from American Peptide; purchased American Peptide (Sunnyvale, Calif., USA)
# T1 sequence (P05067 672-713 limits assumed): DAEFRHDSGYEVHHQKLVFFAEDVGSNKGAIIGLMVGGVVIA
# Procedure: Since the aggregation behavior of Aβ is dependent on the presence of small concentrations of aggregated forms of the peptide, that are present in many commercial samples, we prepared the Aβ solution by first dissolving the peptide in Hexafluoroisopropanol (HFIP), a protocol that produces a starting solution constituted only of Aβ monomers (Chromy et al. (2003)). Lyophillized Aβ1-42 (American peptide) (1 mg) was dissolved in HFIP, evaporated and re-dissolved in 22 μl of dimethyl sulfoxide (DMSO, St. Louis, Mo.). These peptide preparations were then diluted in PBS buffer pH 7.4 alone or PBS plus cotinine to obtain solutions containing 1 mM Aβ1-42 with and without 2 mM cotinine. Then the Aβ1-42 solutions were incubated for 10 days and the formation of oligomers and fibers was examined.
# 20 μl aliquots of Aβ solutions were deposited on freshly cleaned and dried silicon wafers (approximately 1 mm thick). After waiting for 10 min, non-adsorbed portions of the samples were washed with de-ionized water (2000 μl). The wet surface of the silicon wafer was then dried using gentle flow of air.
# The AFM analysis was performed using an AFM apparatus (AFM, βA multimode SPM, Model no. 920-006-101, Vecco) that permits the acquisition of images using a tapping mode approach. This approach allows intermittent contact of the tip with the sample and minimizes the chances of deformation of the peptide samples. The cantilever and the tip were made up of silicon and the cantilever force constant was approximately 20-100 N/m with the resonance frequency between 200-400 khz. The scan rate was between 1.0 to 1.2 Hz. The analysis of fibrils and oligomers was performed using the software NanoScope Control, version 5.30.
# To investigate whether cotinine in addition to Aβ oligomerization also affected fibril formation, we used Atomic force miscroscopy (AFM) to analyze Aβ aggregation. The solutions were prepared dissolving Aβ in HFIP and after evaporation, in PBS alone or containing cotinine and incubated at 37° C. for 3 and 10 days.
# ERK1/2 = test: BDNF-stimulated pERK1/2 in primary cortical neurons, Western blot; format: cell-based; settings: BDNF 100 ng/ml plus cotinine 10 μM, 1 h
# [1] = system: phospho-CREB (Serine 133); test: BDNF-stimulated phosphorylation of CREB after Aβ exposure, Western blot; format: cell-based, rat; settings: 5 μM Aβ1-42 + 10 μM cotinine 5 h, then BDNF 1 h
# Procedure: Western blot analysis of the BDNF-stimulated phosphorylation of CREB in extracts of cortical cells. Cells were exposed to vehicle, 5 μM Aβ alone or 5 μM Aβ plus 10 μM cotinine for 5 hours, then to BDNF (50 ng/ml) for 1 hour and analyzed for CREB by western blot (FIG. 6B). The histogram (FIG. 6A) represents the levels of phospho-CREB (Ser133) normalized against β-Tubulin used as a control of protein loading. The values represent significant (*) difference with P<0.05.
# Rat embryonic cortical cells were cultured in 24-well plates (0.3×10^6 cells/well) for 7 days, washed with PBS, collected and disrupted by sonication in ice-cold cell lysis buffer containing (20 mM Tris (pH 7.4), 150 mM NaCl, 1 mM ethylenediaminetetraacetic acid (EDTA), 1 mM egtazic acid (EGTA), 1% triton, 2.5 mM Na pyrophosphate, 1 mM β-glycerophosphate, 1 mM Na orthovanadate, 1 μg/ml leupeptin) (Cell Signaling Technology, Beverly, Mass., USA), 1 mM phenylmethylsulfonyl fluoride (PMSF) (Sigma) complete protease inhibitor cocktail (Roche Molecular Biochemicals, Indianapolis, Ind., USA). […] Protein concentration of supernatants was measured by Bio-Rad protein assay (Bio-Rad, Hercules, Calif., USA), and equal amounts of protein were separated by gradient (4-20%) SDS-PAGE and transferred to nitrocellulose membranes (BA83 0.2 μm; Bio-Rad). […]
# [2] = system: JNK1/2 phosphorylated (pJNK) at Thr183 and Thr185; test: BDNF-induced pJNK in primary cortical neurons, Western blot; format: cell-based; settings: BDNF 100 ng/ml plus cotinine 10 μM, 1 h
# Procedure: After 7 days in vitro, cortical neurons were treated with BDNF (100 ng/ml) alone or BDNF plus cotinine (10 μM) for 1 h. After treatments, cells were lysed and whole cell extracts were analyzed for the active forms of JNK and ERKs, pJNK and pERK1/2 by Western blot.
smiles,measurement,setting,value
CN1C(=O)CC[C@H]1c1cccnc1 [cotinine],neuroprotective actions in presence of nAChR antagonists alpha-Bungarotoxin or mecamylamine,nAChRs,not affected
same,survival of cortical neurons exposed to cotinine alone,cortical cells,not Affected
same,effect on Aβ aggregation and fibril length (AFM),"Aβ1-42 peptide; 1 mM Aβ1-42 + 2 mM cotinine, 10 days 37° C.",reduced Aβ aggregation and the length of Aβ fibrils
same,average length of Aβ fibrils,"Aβ1-42 peptide; 1 mM Aβ1-42 + 2 mM cotinine, 10 days 37° C., n=23, without cotinine 345±42",223±36
same,average diameter of the fibers,Aβ1-42 peptide; unchanged by presence of cotinine,22-24 nm
same,BDNF-stimulated phosphorylation of ERK,ERK1/2,did not affect the BDNF-stimulated phosphorylation of ERK
same,increase of phosphoCREB versus cells treated with BDNF plus Aβ1-42,[1],34%
same,phosphoCREB level relative to control cells,[1],indistinguishable from the control cell values
same,levels of active JNK1/2 (pJNK) induced by BDNF,[2],decreased the levels of the active forms of JNK1/2
